Laboratory results: patent US20180104361A1, “DYE MOLECULE AND DYE PREPARATIONS, IN PARTICULAR FOR USE IN SURGICAL METHODS OF OPHTHALMIC SURGERY AND FOR DYEING PROTEINS” (AL.CHI.MI.A. S.R.L., priority 2015, published 2018)

Experiments:
[1] = equal to 0.03% w/v; DIN EN ISO 10993; cited from earlier work
egg white albumin = biological target: T1, egg white albumin (Gallus gallus, UniProt P01012); assay: Affinity test by circular dichroism (CD) titration with albumin; assay type: binding; conditions: dye preparation in Ficoll 4% in a phosphate buffer (sterilised)
T1 construct: from tissue; host or cells: egg white
T1 sequence (P01012 1-386): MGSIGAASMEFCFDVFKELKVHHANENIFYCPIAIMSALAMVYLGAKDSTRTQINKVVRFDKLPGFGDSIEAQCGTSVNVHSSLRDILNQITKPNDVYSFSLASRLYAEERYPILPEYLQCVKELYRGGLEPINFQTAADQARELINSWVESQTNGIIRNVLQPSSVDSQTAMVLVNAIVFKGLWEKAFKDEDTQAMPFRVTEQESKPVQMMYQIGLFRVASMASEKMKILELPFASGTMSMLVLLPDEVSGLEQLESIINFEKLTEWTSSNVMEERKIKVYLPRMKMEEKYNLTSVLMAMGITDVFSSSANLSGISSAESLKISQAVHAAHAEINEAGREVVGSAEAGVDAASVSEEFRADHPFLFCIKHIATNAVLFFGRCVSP
Experimental: In fact, even in this sector, one of the most used dyes today is BBG. However, the Applicant has realised that although it can dye proteins, BBG actually has a relatively low affinity with the self-same proteins. […] It should be noticed that, to carry out the tests, the commercial BBG with a purity of 80% was preliminarily purified and the CD spectra were measured in the 800-400 nm region in the presence of increasing quantities of albumin. Finally, in the known way, the value of the association constant was determined using a non-linear regression of the intensity of the dichroic signal expressed in ΔA (AL-AR, where AL and AR respectively indicate the absorbency of the preparation as regards the two circularly polarized light waves used for the circular dichroism study, the left wave and the right wave) depending on the concentration of the egg white albumin, used as a reference. However, on this point what is indicated in the subsequent Affinity Tests section should also be considered. […]
Affinity was determined by means of CD (circular dichroism) spectroscopy. The CD spectra were measured in the 800-400 nm region in the presence of increasing quantities of egg white albumin which, as is known, for analyses of this type is commonly considered to be representative of proteins in general. […]

## CCOc1ccc(Nc2ccc(/C(=C3C=C/C(=[N+](/CC)Cc4cccc(S(=O)(=O)[O-])c4)C=C/3C)c3ccc(N(CC)Cc4cccc(S(=O)(=O)O)c4)cc3C)cc2)cc1 [BBG-250, Brilliant Blue G 250]
[1]
  concentration at which considered not to be cytotoxic: ≤ 0.3 g/I
Egg white albumin
  association constant Ka: approximately 60,000 M^−1
